Starred links: 1 amine or outer side, 2 acyl side, 3 side chain; linkers in the order of their positions; H or OH if unused. Non-standard residues stand in square brackets, D forms with d. Residues, ends and D or L forms follow the SMILES beside them. Groups on a side chain read outwards from the residue. *: point of attachment. Phe(4-CH2NH2) = NCc1ccc(C[C@H](N)C(=O)O)cc1; C18 diacid = O=C(O)CCCCCCCCCCCCCCCCC(=O)*; C16 diacid = O=C(O)CCCCCCCCCCCCCCC(=O)*; γGlu = O=C(O)[C@H](CCC(=O)[*:2])N[*:1]; Met(O2) = CS(=O)(=O)CC[C@H](N)C(=O)O; αMeD = C[C@](N)(CC(=O)O)C(=O)O; AEEA = NCCOCCOCC(=O)O; Aib = CC(C)(N)C(=O)O

For one test, the target named is T1, human GLP1R (Homo sapiens, UniProt P43220).
T1 construct: expressed in transfected cells; kept under Blasticidin and Hygromycin selection
Briefly: cAMP activity assay, cells expressing human GLP1R. The format is cell-based. The following applies: cAMP production, assay buffer with or without 20% human serum (not stated which). A digest of the protocol:
(§1)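 Peptides as 10-point titrations from DMSO tested on cells expressing human GLP1R or GCGR. cAMP measured by luminescent kit after overnight room-temperature incubation in the dark. EC50 from four-parameter logistic fit; native GLP-1 and glucagon as controls.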
Background: Cyclic AMP is a second messenger, typically raised through Gs and lowered through Gi signalling.

Another test concerns the target T2, human GCGR (Homo sapiens, UniProt P47871).
T2 construct: expressed in transfected cells; kept under Blasticidin and Hygromycin selection
Put plainly: cAMP activity assay, cells expressing human GCGR. It is filed as cell-based. The settings on record: for EC50: cAMP production, cells expressing human GCGR, assay buffer with or without 20% human serum (not stated which), read-out: GCGR EC50 human; for hGCGR/hGLP1R (hTone): ratio of human GCGR EC50 to human GLP1R EC50. In outline: as §1

T2 sequence (P47871 26-477): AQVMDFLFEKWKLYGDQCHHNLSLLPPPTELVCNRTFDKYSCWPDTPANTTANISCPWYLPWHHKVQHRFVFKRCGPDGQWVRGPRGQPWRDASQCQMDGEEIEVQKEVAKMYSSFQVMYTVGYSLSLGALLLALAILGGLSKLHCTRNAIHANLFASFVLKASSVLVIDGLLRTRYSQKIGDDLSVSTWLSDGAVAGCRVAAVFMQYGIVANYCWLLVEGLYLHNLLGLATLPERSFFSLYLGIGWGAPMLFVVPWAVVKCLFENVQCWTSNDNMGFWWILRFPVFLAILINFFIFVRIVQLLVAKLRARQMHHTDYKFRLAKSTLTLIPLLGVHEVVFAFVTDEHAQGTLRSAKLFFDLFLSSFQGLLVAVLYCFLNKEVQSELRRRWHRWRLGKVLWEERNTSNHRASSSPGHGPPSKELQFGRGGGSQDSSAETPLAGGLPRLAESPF
T1 sequence (P43220 24-463): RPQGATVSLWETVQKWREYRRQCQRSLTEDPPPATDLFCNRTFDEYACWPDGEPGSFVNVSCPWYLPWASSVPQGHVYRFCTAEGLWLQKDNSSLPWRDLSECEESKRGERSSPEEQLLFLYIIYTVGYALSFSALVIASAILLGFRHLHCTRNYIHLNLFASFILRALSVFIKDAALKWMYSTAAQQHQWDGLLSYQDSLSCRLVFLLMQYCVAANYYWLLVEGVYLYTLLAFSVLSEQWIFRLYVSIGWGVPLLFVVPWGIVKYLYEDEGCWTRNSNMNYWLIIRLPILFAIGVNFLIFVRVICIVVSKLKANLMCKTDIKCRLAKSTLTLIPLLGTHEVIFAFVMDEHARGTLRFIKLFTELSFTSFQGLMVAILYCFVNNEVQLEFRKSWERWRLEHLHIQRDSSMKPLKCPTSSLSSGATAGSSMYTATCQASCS

The term EC50 denotes the concentration needed to bring the measured effect to its halfway point. With `CC(C)C[C@H](NC(=O)[C@H](Cc1ccc(O)cc1)NC(=O)[C@H](CCCCN)NC(=O)[C@H](CO)NC(=O)[C@H](Cc1ccc(O)cc1)NC(=O)[C@H](CC(=O)O)NC(=O)[C@H](CO)NC(=O)[C@@H](NC(=O)[C@H](Cc1ccccc1)NC(=O)[C@@H](NC(=O)CNC(=O)[C@H](CCC(N)=O)NC(=O)C(C)(C)NC(=O)[C@@H](N)Cc1c[nH]cn1)[C@@H](C)O)[C@@H](C)O)C(=O)N[C@@H](CC(=O)O)C(=O)N[C@@H](C)C(=O)N[C@@H](CCCNC(=N)N)C(=O)N[C@@H](C)C(=O)N[C@@H](C)C(=O)N[C@@H](CCC(N)=O)C(=O)N[C@@H](CCCCNC(=O)COCCOCCNC(=O)COCCOCCNC(=O)CC[C@H](NC(=O)CCCCCCCCCCCCCCCCC(=O)O)C(=O)O)C(=O)N[C@@H](Cc1ccccc1)C(=O)N[C@H](C(=O)N[C@@H](CCC(N)=O)C(=O)N[C@@H](Cc1c[nH]c2ccccc12)C(=O)N[C@@H](CC(C)C)C(=O)N[C@@H](CCS(C)(=O)=O)C(=O)N[C@@H](CC(=O)O)C(=O)N[C@H](C(N)=O)[C@@H](C)O)C(C)C` [compound 30] (H-H[Aib]QGTFTSDYSKYLDARAAQK([AEEA-AEEA-γGlu-C18 diacid])FVQWL[Met(O2)]DT-NH2), the EC50 was determined as 0.06 nM on human GLP1R and 0.1 nM on human GCGR. Further, the “hGCGR/hGLP1R (hTone)” value on human GCGR came out at 1.66.

For `CC(C)C[C@H](NC(=O)[C@H](Cc1ccc(O)cc1)NC(=O)[C@H](CCCCN)NC(=O)[C@H](CO)NC(=O)[C@H](Cc1ccc(O)cc1)NC(=O)[C@H](CC(=O)O)NC(=O)[C@H](CO)NC(=O)[C@@H](NC(=O)[C@H](Cc1ccccc1)NC(=O)[C@@H](NC(=O)CNC(=O)[C@H](CCC(N)=O)NC(=O)C(C)(C)NC(=O)[C@@H](N)Cc1c[nH]cn1)[C@@H](C)O)[C@@H](C)O)C(=O)N[C@@H](CC(=O)O)C(=O)N[C@@H](C)C(=O)N[C@@H](CCCNC(=N)N)C(=O)N[C@@H](C)C(=O)N[C@@H](C)C(=O)N[C@@H](CCCCNC(=O)COCCOCCNC(=O)COCCOCCNC(=O)CC[C@H](NC(=O)CCCCCCCCCCCCCCC(=O)O)C(=O)O)C(=O)N[C@@H](CC(=O)O)C(=O)N[C@@H](Cc1ccccc1)C(=O)N[C@H](C(=O)N[C@@H](CCC(N)=O)C(=O)N[C@@H](Cc1c[nH]c2ccccc12)C(=O)N[C@@H](CC(C)C)C(=O)N[C@@H](CCS(C)(=O)=O)C(=O)N[C@@](C)(CC(=O)O)C(=O)N[C@H](C(N)=O)[C@@H](C)O)C(C)C` [compound 41] (H-H[Aib]QGTFTSDYSKYLDARAAK([AEEA-AEEA-γGlu-C16 diacid])DFVQWL[Met(O2)][αMeD]T-NH2), the 50% effective concentration (EC50) on human GLP1R turned out to be 0.02 nM; at human GCGR, 0.05 nM. The “hGCGR/hGLP1R (hTone)” value at human GCGR is on record as 3.13.

Take `CC(C)C[C@H](NC(=O)[C@H](Cc1ccc(O)cc1)NC(=O)[C@H](CCCCN)NC(=O)[C@H](CO)NC(=O)[C@H](Cc1ccc(O)cc1)NC(=O)[C@H](CC(=O)O)NC(=O)[C@H](CO)NC(=O)[C@@H](NC(=O)[C@H](Cc1ccccc1)NC(=O)[C@@H](NC(=O)CNC(=O)[C@H](CCC(N)=O)NC(=O)C(C)(C)NC(=O)[C@@H](N)Cc1c[nH]cn1)[C@@H](C)O)[C@@H](C)O)C(=O)N[C@@H](CC(=O)O)C(=O)N[C@@H](C)C(=O)N[C@@H](CCCNC(=N)N)C(=O)N[C@@H](C)C(=O)N[C@@H](C)C(=O)N[C@@H](CCC(N)=O)C(=O)N[C@@H](CCCCNC(=O)COCCOCCNC(=O)COCCOCCNC(=O)CC[C@H](NC(=O)CCCCCCCCCCCCCCCCC(=O)O)C(=O)O)C(=O)N[C@@H](Cc1ccccc1)C(=O)N[C@H](C(=O)N[C@@H](CCC(N)=O)C(=O)N[C@@H](Cc1c[nH]c2ccccc12)C(=O)N[C@@H](CC(C)C)C(=O)N[C@@H](CCS(C)(=O)=O)C(=O)N[C@@](C)(CC(=O)O)C(=O)N[C@H](C(N)=O)[C@@H](C)O)C(C)C` [compound 71] (H-H[Aib]QGTFTSDYSKYLDARAAQK([AEEA-AEEA-γGlu-C18 diacid])FVQWL[Met(O2)][αMeD]T-NH2): the EC50 on human GLP1R came out at 0.17 nM. At human GCGR, the EC50 came out at 0.13 nM and the “hGCGR/hGLP1R (hTone)” value was determined as 1.

For the molecule `CC(C)C[C@H](NC(=O)[C@H](CC(C)C)NC(=O)[C@H](CCCCN)NC(=O)[C@H](CO)NC(=O)[C@H](Cc1ccc(O)cc1)NC(=O)[C@H](CC(=O)O)NC(=O)[C@H](CO)NC(=O)[C@@H](NC(=O)[C@H](Cc1ccccc1)NC(=O)[C@@H](NC(=O)CNC(=O)[C@H](CCC(N)=O)NC(=O)C(C)(C)NC(=O)[C@@H](N)Cc1c[nH]cn1)[C@@H](C)O)[C@@H](C)O)C(=O)N[C@@H](CC(=O)O)C(=O)N[C@@H](C)C(=O)N[C@@H](CCCNC(=N)N)C(=O)N[C@@H](C)C(=O)N[C@@H](C)C(=O)N[C@@H](CCCCNC(=O)COCCOCCNC(=O)COCCOCCNC(=O)CC[C@H](NC(=O)CCCCCCCCCCCCCCCCC(=O)O)C(=O)O)C(=O)N[C@@H](CC(=O)O)C(=O)N[C@@H](Cc1ccccc1)C(=O)N[C@H](C(=O)N[C@@H](CCC(N)=O)C(=O)N[C@@H](Cc1c[nH]c2ccccc12)C(=O)N[C@@H](CC(C)C)C(=O)N[C@@H](CCS(C)(=O)=O)C(=O)N[C@@](C)(CC(=O)O)C(=O)N[C@H](C(N)=O)[C@@H](C)O)C(C)C` [compound 79] (H-H[Aib]QGTFTSDYSKLLDARAAK([AEEA-AEEA-γGlu-C18 diacid])DFVQWL[Met(O2)][αMeD]T-NH2), the response on human GLP1R was half-maximal at 0.84 nM (EC50). Besides, at human GCGR, the EC50 amounted to 0.69 nM and the “hGCGR/hGLP1R (hTone)” value turned out to be 0.8.

Regarding `CC(C)C[C@H](NC(=O)[C@H](Cc1c[nH]c2ccccc12)NC(=O)[C@H](CCC(N)=O)NC(=O)[C@@H](NC(=O)[C@H](Cc1ccccc1)NC(=O)[C@H](CC(=O)O)NC(=O)[C@H](CCC(N)=O)NC(=O)[C@H](C)NC(=O)[C@H](C)NC(=O)[C@H](CCCNC(=N)N)NC(=O)C(C)(C)NC(=O)[C@H](CC(=O)O)NC(=O)[C@H](CC(C)C)NC(=O)[C@H](Cc1ccc(O)cc1)NC(=O)[C@H](CCCCN)NC(=O)[C@H](CO)NC(=O)[C@H](CCCCNC(=O)COCCOCCNC(=O)COCCOCCNC(=O)CC[C@H](NC(=O)CCCCCCCCCCCCCCCCC(=O)O)C(=O)O)NC(=O)[C@H](CC(=O)O)NC(=O)[C@H](CO)NC(=O)[C@@H](NC(=O)[C@H](Cc1ccccc1)NC(=O)[C@@H](NC(=O)CNC(=O)[C@H](CCC(N)=O)NC(=O)C(C)(C)NC(=O)[C@@H](N)Cc1c[nH]cn1)[C@@H](C)O)[C@@H](C)O)C(C)C)C(=O)N[C@@H](CCS(C)(=O)=O)C(=O)N[C@@H](CC(=O)O)C(=O)N[C@H](C(N)=O)[C@@H](C)O` [compound 4] (H-H[Aib]QGTFTSDK([AEEA-AEEA-γGlu-C18 diacid])SKYLD[Aib]RAAQDFVQWL[Met(O2)]DT-NH2; N-terminus assumed), the concentration for a half-maximal effect (EC50) on human GLP1R worked out at 0.27 nM; at human GCGR, 1.42 nM. For the same molecule, the “hGCGR/hGLP1R (hTone)” value at human GCGR was 5.36.

The molecule `CC(C)C[C@H](NC(=O)[C@H](Cc1ccc(O)cc1)NC(=O)[C@H](CCCCN)NC(=O)[C@H](CO)NC(=O)[C@H](Cc1ccc(O)cc1)NC(=O)[C@H](CC(=O)O)NC(=O)[C@H](CO)NC(=O)[C@@H](NC(=O)[C@H](Cc1ccccc1)NC(=O)[C@@H](NC(=O)CNC(=O)[C@H](CCC(N)=O)NC(=O)C(C)(C)NC(=O)[C@@H](N)Cc1c[nH]cn1)[C@@H](C)O)[C@@H](C)O)C(=O)N[C@@H](CC(=O)O)C(=O)N[C@@H](C)C(=O)N[C@@H](CCCNC(=N)N)C(=O)N[C@@H](C)C(=O)N[C@@H](C)C(=O)N[C@@H](CCCCNC(=O)COCCOCCNC(=O)COCCOCCNC(=O)CC[C@H](NC(=O)CCCCCCCCCCCCCCC(=O)O)C(=O)O)C(=O)N[C@@H](CC(=O)O)C(=O)N[C@@H](Cc1ccccc1)C(=O)N[C@H](C(=O)N[C@@H](CCC(N)=O)C(=O)N[C@@H](Cc1c[nH]c2ccccc12)C(=O)N[C@@H](CC(C)C)C(=O)N[C@@H](CCS(C)(=O)=O)C(=O)N[C@@H](CC(=O)O)C(=O)N[C@H](C(N)=O)[C@@H](C)O)C(C)C` [compound 19] (H-H[Aib]QGTFTSDYSKYLDARAAK([AEEA-AEEA-γGlu-C16 diacid])DFVQWL[Met(O2)]DT-NH2) showed an EC50 at human GLP1R of 0.04 nM. On human GCGR, the concentration for a half-maximal effect (EC50) came to 0.08 nM and the “hGCGR/hGLP1R (hTone)” value was found to be 2.15.

As to `CC(C)C[C@H](NC(=O)[C@H](Cc1c[nH]c2ccccc12)NC(=O)[C@H](CCC(N)=O)NC(=O)[C@@H](NC(=O)[C@H](Cc1ccccc1)NC(=O)[C@H](CC(=O)O)NC(=O)[C@H](CCC(N)=O)NC(=O)[C@H](C)NC(=O)[C@H](C)NC(=O)[C@H](CCCNC(=N)N)NC(=O)C(C)(C)NC(=O)[C@H](CC(=O)O)NC(=O)[C@H](CC(C)C)NC(=O)[C@H](Cc1ccc(O)cc1)NC(=O)[C@H](Cc1ccc(CNC(=O)COCCOCCNC(=O)COCCOCCNC(=O)CC[C@H](NC(=O)CCCCCCCCCCCCCCC(=O)O)C(=O)O)cc1)NC(=O)[C@H](CO)NC(=O)[C@H](Cc1ccc(O)cc1)NC(=O)[C@H](CC(=O)O)NC(=O)[C@H](CO)NC(=O)[C@@H](NC(=O)[C@H](Cc1ccccc1)NC(=O)[C@@H](NC(=O)CNC(=O)[C@H](CCC(N)=O)NC(=O)C(C)(C)NC(=O)[C@@H](N)Cc1c[nH]cn1)[C@@H](C)O)[C@@H](C)O)C(C)C)C(=O)N[C@@H](CCS(C)(=O)=O)C(=O)N[C@@H](CC(=O)O)C(=O)N[C@H](C(N)=O)[C@@H](C)O` [compound 25] (H-H[Aib]QGTFTSDYS[Phe(4-CH2NH2)]([AEEA-AEEA-γGlu-C16 diacid])YLD[Aib]RAAQDFVQWL[Met(O2)]DT-NH2), the 50% effective concentration (EC50) on human GLP1R was determined as 0.02 nM; at human GCGR it was 0.32 nM. For the same molecule, the “hGCGR/hGLP1R (hTone)” value on human GCGR is recorded as 14.00.
